{
  "source": "ChEMBL document CHEMBL1136157",
  "about": "“Synthesis of 3a,4-dihydro-3H-[1]benzopyrano[4,3-c]isoxazoles, displaying combined 5-HT uptake inhibiting and alpha(2)-adrenoceptor antagonistic activities: a novel series of potential antidepressants” (Bioorg Med Chem Lett, 2003)",
  "data": [
    {"target": "Sodium-dependent serotonin transporter (Homo sapiens) (UniProt P31645)", "sequence (P31645 whole entry, looked up)": "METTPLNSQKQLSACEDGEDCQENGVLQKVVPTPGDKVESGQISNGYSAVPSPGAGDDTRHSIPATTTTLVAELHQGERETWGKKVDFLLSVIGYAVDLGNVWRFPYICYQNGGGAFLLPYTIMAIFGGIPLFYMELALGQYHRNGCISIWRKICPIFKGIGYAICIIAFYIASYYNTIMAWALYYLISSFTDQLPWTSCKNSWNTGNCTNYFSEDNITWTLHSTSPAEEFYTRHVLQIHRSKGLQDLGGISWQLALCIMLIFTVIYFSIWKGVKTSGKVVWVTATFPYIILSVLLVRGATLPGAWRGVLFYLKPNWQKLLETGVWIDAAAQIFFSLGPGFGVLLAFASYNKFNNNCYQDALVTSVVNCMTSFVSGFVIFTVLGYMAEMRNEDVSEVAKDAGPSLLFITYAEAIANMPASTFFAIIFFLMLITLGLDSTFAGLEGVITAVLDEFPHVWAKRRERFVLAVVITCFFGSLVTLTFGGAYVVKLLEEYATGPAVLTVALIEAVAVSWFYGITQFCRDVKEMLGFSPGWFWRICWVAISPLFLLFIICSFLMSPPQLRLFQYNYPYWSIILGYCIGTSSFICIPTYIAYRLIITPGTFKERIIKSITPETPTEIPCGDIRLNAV", "assay": "In vitro binding affinity towards human serotonin transporter", "units": {"Ki": "µM"}, "values": [
      {"smiles": "COc1cc2c(cc1OC)C1=NOC(CN3CCN(Cc4csc5ccccc45)CC3)C1CO2", "note": "(centres undefined)", "Ki": 0.0072},
      {"smiles": "COc1cc2c(cc1OC)C1=NOC(CN3CCN(C/C=C/c4ccccc4)CC3)C1CO2", "note": "(centres undefined)", "Ki": 0.0083},
      {"smiles": "COc1cc2c(cc1OC)C1=NOC(CN3CCN(Cc4cnc5ccccc5c4)CC3)C1CO2", "note": "(centres undefined)", "Ki": 0.014},
      {"smiles": "COc1cc2c(cc1OC)C1=NOC(CN3CCN(Cc4ccc5ncccc5c4)CC3)C1CO2", "note": "(centres undefined)", "Ki": 0.0081},
      {"smiles": "COc1ccc2c(c1)C1=NOC(CN3CCN(C/C=C/c4ccccc4)CC3)C1CO2", "note": "(centres undefined)", "Ki": 0.014},
      {"smiles": "COc1cc2c(cc1OC)C1=NOC(CN3CCN(Cc4cc5ccccc5s4)CC3)C1CO2", "note": "(centres undefined)", "Ki": 0.005},
      {"smiles": "COc1cc2c(cc1OC)C1=NO[C@@H](CN3CCN(C/C=C(\\C)c4ccccc4)CC3)[C@@H]1CO2", "note": "(stereo in doubt; (-)15g)", "Ki": 0.01},
      {"smiles": "COc1cc2c(cc1OC)C1=NOC(CN3CCN(Cc4cccc5ccccc45)CC3)C1CO2", "note": "(centres undefined)", "Ki": 0.0039},
      {"smiles": "COc1cc2c(cc1OC)C1=NOC(CN3CCN(CCC(=O)c4ccccc4)CC3)C1CO2", "note": "(centres undefined)", "Ki": 0.123},
      {"smiles": "COc1cc2c(cc1OC)C1=NOC(CN3CCN(CCCc4ccccc4)CC3)C1CO2", "note": "(centres undefined)", "Ki": 0.01},
      {"smiles": "COc1cc2c(cc1OC)C1=NOC(CN3CCN(CC4=Cc5ccccc5C4)CC3)C1CO2", "note": "(centres undefined)", "Ki": 0.0041},
      {"smiles": "COc1cc2c(cc1OC)C1=NOC(CN3CCN(Cc4ccccc4)CC3)C1CO2", "note": "(centres undefined)", "Ki": 0.158},
      {"smiles": "COc1cc2c(cc1OC)C1=NOC(CN3CCN(C/C=C(\\C)c4ccccc4)CC3)C1CO2", "note": "(centres undefined)", "Ki": 0.01},
      {"smiles": "COc1cc2c(cc1OC)C1=NO[C@@H](CN3CCN(C/C=C(\\C)c4ccccc4)CC3)[C@@H]1CO2", "note": "(stereo in doubt; (+)15g)", "Ki": 0.0045},
      {"smiles": "COc1cc2c(cc1OC)C1=NOC(CN3CCN(CCc4ccccc4)CC3)C1CO2", "note": "(centres undefined)", "Ki": 0.199},
      {"smiles": "COc1cc2c(cc1OC)C1=NO[C@@H](CN3CCN(C/C=C/c4ccccc4)CC3)[C@@H]1CO2", "note": "(stereo in doubt; (-)5)", "Ki": 0.0034},
      {"smiles": "COc1cc2c(cc1OC)C1=NO[C@@H](CN3CCN(C/C=C\\c4ccccc4)CC3)[C@@H]1CO2", "Ki": 0.035},
      {"smiles": "COc1ccc2c(c1)OCC1C2=NOC1CN1CCN(C/C=C/c2ccccc2)CC1", "note": "(centres undefined)", "Ki": 0.019},
      {"smiles": "COc1cc2c(cc1OC)C1=NO[C@@H](CN3CCN(C/C=C/c4ccccc4)CC3)[C@@H]1CO2", "note": "(stereo in doubt; (+)5)", "Ki": 0.0012}
    ]}
  ]
}
